Data on three compounds can be found in ChEMBL document CHEMBL5512634, “Sulfone-based human liver pyruvate kinase inhibitors - Design, synthesis and in vitro bioactivity” (Eur J Med Chem, 2024).

The structures appear in SMILES notation. The source made the active and inactive calls. The calls are words filed in the database; no cut-off is given here.

For data set [1], the target named is T1, Pyruvate kinase PKLR (Homo sapiens, UniProt P30613). The data set can be described thus: Inhibition of full length N-terminal His-tagged human PKL (2 to 543 residues) expressed in Escherichia coli by kinase Glo luminescence based plate reader assay. For orientation: In Kinase-Glo more light means more ATP remaining.
Target sequence in this assay (P30613 whole entry, the tested form may be a part): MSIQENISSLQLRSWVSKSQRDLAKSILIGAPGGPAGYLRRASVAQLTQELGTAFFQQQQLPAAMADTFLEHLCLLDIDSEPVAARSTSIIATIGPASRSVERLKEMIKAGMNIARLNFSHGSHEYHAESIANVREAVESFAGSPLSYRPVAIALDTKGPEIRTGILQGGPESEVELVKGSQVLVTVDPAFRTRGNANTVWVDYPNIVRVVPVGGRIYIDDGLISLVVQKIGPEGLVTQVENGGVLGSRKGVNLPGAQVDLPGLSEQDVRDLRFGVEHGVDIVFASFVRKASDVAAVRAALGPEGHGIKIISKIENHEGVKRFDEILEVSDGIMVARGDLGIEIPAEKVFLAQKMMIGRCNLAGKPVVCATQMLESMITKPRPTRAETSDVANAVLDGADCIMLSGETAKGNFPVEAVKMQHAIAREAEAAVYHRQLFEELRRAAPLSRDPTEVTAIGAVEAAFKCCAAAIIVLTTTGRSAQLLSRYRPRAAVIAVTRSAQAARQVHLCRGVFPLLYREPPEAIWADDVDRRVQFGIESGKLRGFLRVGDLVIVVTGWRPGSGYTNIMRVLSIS
Data set [2] has as its target T1, Pyruvate kinase PKLR. The data set can be described thus: Inhibition of PKR (unknown origin).
Target sequence in this assay (P30613 whole entry, looked up, the tested form may be a part): as the sequence (P30613 whole entry, the tested form may be a part) above
The next data set relates to HepG2. Briefly: Cytotoxicity against PKM2 knock out human HepG2 cells at 1 to 10 uM measured for 24 to 72 hrs. To be noted: hepg2, 10 µM, dose lower 1 µM, time lower 24 hrs, dose upper 10 µM, time upper 72 hrs. In kind it is toxicity, cell-based.
Data set [3] addresses T1, Pyruvate kinase PKLR. The data set can be described thus: Inhibition of full length N-terminal His-tagged human PKL (2 to 543 residues) expressed in Escherichia coli at 10 uM by kinase Glo luminescence based plate reader assay relative to control.
Target sequence in this assay (P30613 whole entry, looked up, the tested form may be a part): as the sequence (P30613 whole entry, the tested form may be a part) above

`O=S1(=O)Oc2cc(O)c(O)c(O)c2-c2cc(O)c(O)cc21`: the IC50 (commonly the point on the concentration scale where inhibition reaches its midpoint) on Pyruvate kinase PKLR [1] is 70 nM; against Pyruvate kinase PKLR [2] it was 180 nM.

As for `O=S1(=O)Oc2c(ccc(O)c2O)-c2cc(O)c(O)cc21`, the Activity result with HepG2 is reported as “Non-Toxic”.

On to `O=S1(=O)Oc2c(ccc(O)c2O)-c2cc(O)ccc21`, for which, on Pyruvate kinase PKLR [3], the inhibition entry is “Active”.
